Assay results as given in US9682974B2, “Heteroaryl substituted pyrazoles” (BAYER PHARMA AKTIENGESELLSCHAFT, priority 2013, dated 2017).

What was measured:
[1] = target: T1, catalytic domain of human Bub1 (amino acids 704-1085) (Homo sapiens, UniProt O43683); assay: Bub1 kinase assay (TR-FRET); assay type: biochemical; settings: 10 μM ATP, 1 μM peptide substrate, read-out: Biological Assay 1: Bub1 kinase assay median IC50
T1 construct: catalytic domain of human Bub1 (amino acids 704-1085); His6 (N); made in house; host or cells: Hi5 insect cells
From the text: Bub1-inhibitory activities of compounds described in the present invention were quantified using a time-resolved fluorescence energy transfer (TR-FRET) kinase assay which measures phosphorylation of the synthetic peptide Biotin-Ahx-VLLPKKSFAEPG (SEQ ID No. 1) (C-terminus in amide form), purchased from e.g. Biosyntan (Berlin, Germany) by the (recombinant) catalytic domain of human Bub1 (amino acids 704-1085), expressed in Hi5 insect cells with an N-terminal His6-tag and purified by affinity- (Ni-NTA) and size exclusion chromatography.
In a typical assay 11 different concentrations of each compound (0.1 nM, 0.33 nM, 1.1 nM, 3.8 nM, 13 nM, 44 nM, 0.15 μM, 0.51 μM, 1.7 μM, 5.9 μM and 20 μM) were tested in duplicate within the same microtiter plate. To this end, 100-fold concentrated compound solutions (in DMSO) were previously prepared by serial dilution (1:3.4) of 2 mM stocks in a clear low volume 384-well source microtiter plate (Greiner Bio-One, Frickenhausen, Germany), from which 50 nL of compounds were transferred into a black low volume test microtiter plate from the same supplier. Subsequently, 2 μL of Bub1 (the final concentration of Bub1 was adjusted depending on the activity of the enzyme lot in order to be within the linear dynamic range of the assay: typically ˜200 ng/mL were used) in aqueous assay buffer [50 mM Tris/HCl pH 7.5, 10 mM magnesium chloride (MgCl2), 200 mM potassium chloride (KCl), 1.0 mM dithiothreitol (DTT), 0.1 mM sodium ortho-vanadate, 1% (v/v) glycerol, 0.01% (w/v) bovine serum albumine (BSA), 0.005% (v/v) Trition X-100 (Sigma), 1× Complete EDTA-free protease inhibitor mixture (Roche)] were added to the compounds in the test plate and the mixture was incubated for 15 min at 22° C. to allow pre-equilibration of the putative enzyme-inhibitor complexes before the start of the kinase reaction, which was initiated by the addition of 3 μL 1.67-fold concentrated solution (in assay buffer) of adenosine-tri-phosphate (ATP, 10 μM final concentration) and peptide substrate (1 μM final concentration). The resulting mixture (5 μL final volume) was incubated at 22° C. during 60 min., and the reaction was stopped by the addition of 5 μL of an aqueous EDTA-solution (50 mM EDTA, in 100 mM HEPES pH 7.5 and 0.2% (w/v) bovine serum albumin) which also contained the TR-FRET detection reagents (0.2 μM streptavidin-XL665 [Cisbio Bioassays, Codolet, France] and 1 nM anti-phosho-Serine antibody [Merck Millipore, cat. #35-001] and 0.4 nM LANCE EU-W1024 labeled anti-mouse IgG antibody [Perkin-Elmer, product no. AD0077, alternatively a Terbium-cryptate-labeled anti-mouse IgG antibody from Cisbio Bioassays can be used]). The stopped reaction mixture was further incubated 1 h at 22° C. in order to allow the formation of complexes between peptides and detection reagents. Subsequently, the amount of product was evaluated by measurement of the resonance energy transfer from the Eu-chelate-antibody complex recognizing the Phosphoserine residue to the streptavidin-XL665 bound to the biotin moiety of the peptide. To this end, the fluorescence emissions at 620 nm and 665 nm after excitation at 330-350 nm were measured in a TR-FRET plate reader, e.g. a Rubystar or Pherastar (both from BMG Labtechnologies, Offenburg, Germany) or a Viewlux (Perkin-Elmer) and the ratio of the emissions (665 nm/622 nm) was taken as indicator for the amount of phosphorylated substrate. The data were normalised using two sets of (typically 32-) control wells for high- (=enzyme reaction without inhibitor=0%=Minimum inhibition) and low- (=all assay components without enzyme=100%=Maximum inhibition) Bub1 activity. […] values were calculated by fitting the normalized inhibition data to a 4-parameter logistic equation (Minimum, Maximum, IC50, Hill; Y=Max+(Min−Max)/(1+(X/IC50)Hill)).

[2] = tested on: HeLa human cervical cancer cell line; assay: Proliferation assay (HeLa cell line), crystal violet staining; assay type: cell-based; settings: 96 h, HeLa cells, 4 days incubation, read-out: Biological Assay 2: Proliferation assay (HeLa cell line) median IC50
Description: Cultivated tumor cells (cells were ordered from ATCC) were plated at a density of 3000 cells/well in a 96-well multititer plate in 200 μL of growth medium supplemented 10% fetal calf serum. After 24 hours, the cells of one plate (zero-point plate) were stained with crystal violet (see below), while the medium of the other plates was replaced by fresh culture medium (200 μL), to which the test substances were added in various concentrations (0 μM, as well as in the range of 0.001-10 μM; the final concentration of the solvent dimethyl sulfoxide was 0.5%). The cells were incubated for 4 days in the presence of test substances. Cell proliferation was determined by staining the cells with crystal violet: the cells were fixed by adding 20 μL/measuring point of an 11% glutaric aldehyde solution for 15 minutes at room temperature. After three washing cycles of the fixed cells with water, the plates were dried at room temperature. The cells were stained by adding 100 μL/measuring point of a 0.1% crystal violet solution (pH 3.0). After three washing cycles of the stained cells with water, the plates were dried at room temperature. The dye was dissolved by adding 100 μL/measuring point of a 10% acetic acid solution. Absorbtion was determined by photometry at a wavelength of 595 nm. The change of cell number, in percent, was calculated by normalization of the measured values to the absorbtion values of the zero-point plate (=0%) and the absorbtion of the untreated (0 μm) cells (=100%). The IC50 values were determined by means of a 4 parameter fit.

T1 sequence (O43683 704-1085): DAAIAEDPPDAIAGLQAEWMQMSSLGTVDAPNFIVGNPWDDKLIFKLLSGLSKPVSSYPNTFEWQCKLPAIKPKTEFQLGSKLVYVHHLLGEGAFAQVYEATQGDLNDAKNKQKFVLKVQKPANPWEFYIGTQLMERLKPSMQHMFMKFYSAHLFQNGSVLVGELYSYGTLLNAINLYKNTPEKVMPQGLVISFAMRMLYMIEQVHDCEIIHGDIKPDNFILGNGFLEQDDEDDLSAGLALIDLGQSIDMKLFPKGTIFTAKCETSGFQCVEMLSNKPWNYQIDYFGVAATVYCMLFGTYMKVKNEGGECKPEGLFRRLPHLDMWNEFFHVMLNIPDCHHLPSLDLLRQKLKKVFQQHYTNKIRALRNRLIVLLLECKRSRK

Compound	IC50 [1] [nM]	IC50 [2] [nM]
CCOc1cc(F)c(Cn2nc(-c3cc(Nc4ccncn4)n(CCN4CCOCC4)n3)c(C)c2C2CC2)c(F)c1 [Example 2-1-1, 5′-cyclopropyl-1′-(4-ethoxy-2,6-difluorobenzyl)-4′-methyl-1-[2-(morpholin-4-yl)ethyl]-N-(pyrimidin-4-yl)-1H,1′H-3,3′-bipyrazol-5-amine]	680	–
CCOc1cc(F)c(Cn2nc(-c3cc(Nc4ccncn4)n(C(C)=O)n3)c(C)c2C2CC2)c(F)c1 [Example 2-1-2, 1-[5′-cyclopropyl-1′-(4-ethoxy-2,6-difluorobenzyl)-4′-methyl-5-(pyrimidin-4-ylamino)-1H,1′H-3,3′-bipyrazol-1-yl]ethanone]	≥ 20000	> 10000
CCOc1cc(F)c(Cn2nc(-c3cc(Nc4ccncn4)n(CC(=O)O)n3)c(C)c2C2CC2)c(F)c1 [Example 2-1-3, [5′-cyclopropyl-1′-(4-ethoxy-2,6-difluorobenzyl)-4′-methyl-5-(pyrimidin-4-ylamino)-1H,1′H-3,3′-bipyrazol-1-yl]acetic acid]	1100	> 10000
CCOc1cc(F)c(Cn2nc(-c3cc(Nc4ccncn4)n(CCS(C)(=O)=O)n3)c(C)c2C2CC2)c(F)c1 [Example 2-2-1, 5′-cyclopropyl-1′-(4-ethoxy-2,6-difluorobenzyl)-4′-methyl-1-[2-(methylsulfonyl)ethyl]-N-(pyrimidin-4-yl)-1H,1′H-3,3′-bipyrazol-5-amine]	≥ 20000	–
CCOc1cc(F)c(Cn2nc(-c3nc(Nc4ccncc4)nn3CCOC)c3ccccc32)c(F)c1 [Example 2-5-2, N-{5-[1-(4-ethoxy-2,6-difluorobenzyl)-1H-indazol-3-yl]-1-(2-methoxyethyl)-1H-1,2,4-triazol-3-yl}pyridin-4-amine]	600	–
CCOc1cc(F)c(Cn2nc(-n3cc(Nc4ccncn4)cn3)c3ccccc32)c(F)c1 [Example 2-6-1, N-{1-[1-(4-ethoxy-2,6-difluorobenzyl)-1H-indazol-3-yl]-1H-pyrazol-4-yl}pyrimidin-4-amine]	26	> 10000
Fc1ccccc1Cn1nc(-c2nsc(Nc3ccncc3)n2)c2ccccc21 [Example 2-7-1, N-{3-[1-(2-fluorobenzyl)-1H-indazol-3-yl]-1,2,4-thiadiazol-5-yl}-pyridin-4-amine]	2200	9100

Continued, values first:

IC50 [1] [nM]	IC50 [2] [nM]	Compound
34	–	CCOc1cc(F)c(Cn2nc(-c3cc(Nc4ccncn4)n(C)n3)c(C)c2C2CC2)c(F)c1 [Example 2-1-4, 5′-cyclopropyl-1′-(4-ethoxy-2,6-difluorobenzyl)-1,4′-dimethyl-N-(pyrimidin-4-yl)-1H,1′H-3,3′-bipyrazol-5-amine]
390	3500	CCOc1cc(F)c(Cn2nc(-c3cc(Nc4ccncc4)n(C)n3)c(C)c2C2CC2)c(F)c1 [Example 2-3-1, 5′-cyclopropyl-1′-(4-ethoxy-2,6-difluorobenzyl)-1,4′-dimethyl-N-(pyridin-4-yl)-1H,1′H-3,3′-bipyrazol-5-amine]
12	> 10000	CCOc1cc(F)c(Cn2nc(-c3nc(Nc4ccncc4)n(CCOC)n3)c(C)c2C2CC2)c(F)c1 [Example 2-3-2, N-{3-[5-cyclopropyl-1-(4-ethoxy-2,6-difluorobenzyl)-4-methyl-1H-pyrazol-3-yl]-1-(2-methoxyethyl)-1H-1,2,4-triazol-5-yl}pyridin-4-amine]
22	> 10000	CCOc1cc(F)c(Cn2nc(-c3nc(Nc4ccncc4)n(CCO)n3)c(C)c2C2CC2)c(F)c1 [Example 2-3-3, 2-{3-[5-cyclopropyl-1-(4-ethoxy-2,6-difluorobenzyl)-4-methyl-1H-pyrazol-3-yl]-5-(pyridin-4-ylamino)-1H-1,2,4-triazol-1-yl}ethanol]
82	–	CCOc1cc(F)c(Cn2nc(-c3n[nH]c(Nc4ccncc4)n3)c(C)c2C2CC2)c(F)c1 [Example 2-3-4, N-{3-[5-cyclopropyl-1-(4-ethoxy-2,6-difluorobenzyl)-4-methyl-1H-pyrazol-3-yl]-1H-1,2,4-triazol-5-yl}pyridin-4-amine]
91	–	CCOC(=O)c1cnccc1Nc1nc(-c2nn(Cc3c(F)cc(OCC)cc3F)c(C3CC3)c2C)nn1CCOC [Example 2-4-1, ethyl 4-({3-[5-cyclopropyl-1-(4-ethoxy-2,6-difluorobenzyl)-4-methyl-1H-pyrazol-3-yl]-1-(2-methoxyethyl)-1H-1,2,4-triazol-5-yl}amino)nicotinate]
13	–	CCOc1cc(F)c(Cn2nc(-c3nc(Nc4ccncc4)n(CCOC)n3)c3ccccc32)c(F)c1 [Example 2-5-1, N-{3-[1-(4-ethoxy-2,6-difluorobenzyl)-1H-indazol-3-yl]-1-(2-methoxyethyl)-1H-1,2,4-triazol-5-yl}pyridin-4-amine]
